Source: patent US20250197374A1, “WEE1 DEGRADING COMPOUNDS AND USES THEREOF” (BRISTOL-MYERS SQUIBB COMPANY, priority 2023, published 2025)
pEC50: −log10 of the molar value. Where two headings read alike, the source gives them in different places.

What was measured:
Assay type in all cases: cell-based
[1] = target: T1, WEE1 (Homo sapiens, UniProt P30291+Q96SW2); assay: WEE1-ePL degradation assay (293T-LentiX, InCELL Hunter luminescence, 4 hr); conditions: for 293T-LentiX WEE1-ePL Degradation 4 hr YMin (%): lower limit of fit, % of DMSO control signal remaining; for DC50: LentiX-HEK293T cells expressing WEE1-ePL, 4 hr incubation, read-out: 293T-LentiX WEE1-ePL Degradation 4 hr EC50
T1 construct: C-terminal ePL-tagged (DiscoverX, Fremont, CA) full-length WEE1 expression construct; expressed in transfected cells; host or cells: LentiX-HEK293T (Invitrogen), lentivirally transduced; the cells also over-express GSPT1-GN
Source text: To generate LentiX-WEE1-ePL-GSPT1-ND cells for the WEE1 degradation assay, LentiX-HEK293T (Invitrogen) were tranduced by lentivirus with a C-terminal ePL-tagged (DiscoverX, Fremont, CA) full-length WEE1 expression construct. A separate lentiviral construct was introduced to over-express a mutated form of GSPT1 (NP_002085), termed GSPT1-GN, which contains a G575N mutation and is further truncated in the first 158 amino acids. GSPT1-GN is functional but not degradable by Cereblon. Cells were selected and maintained in complete DMEM media (DMEM, 10% Heat Inactivated FBS, 400 μg/mL Geneticin, and 1 μg/mL puromycin at 37 C and 5% CO2). Cells were passaged every 3-4 days by reseeding 1×10^6 cells in a T150 flask.
Cells were dispensed into 384-well white plates (Corning #3570, NY) that were pre-spotted with compounds using an acoustic dispenser (Echo acoustic transfer system, Beckman Coulter Life Sciences, Carlsbad, CA) as a 10-point dose-response curve with a 3-fold dilution starting at either 1 uM or 10 uM and including a DMSO control. Twenty-five microliters of media containing 2500 cells for LentiX-oeWEE1-ePL was dispensed per well. Assay plates were incubated at 37° C. with 5% CO2 for four hours (WEE1) After incubation, 25 μL of the InCELL Hunter™ Detection Reagent Working Solution (DiscoverX, Fremont, CA) was added to each well and incubated at room temperature for 30 minutes protected from light. After 30 minutes, luminescence was read on a PHERAstar luminometer (Cary, NC).
To determine the half-maximal effective concentration (EC50) values for WEE1-ePL degradation, a four parameter logistic model was used: (Sigmoidal Dose-Response Model) (FIT=(A+((B−A)/1+((C/x)^D)))) where C is the inflection point (EC50), D is the Hill slope, and A and B are the low and high limits of the fit respectively). The lower limit of the fit (value A) is referred to as Ymin. […] The maximum limit constraint, Ymax, is similarly derived using DMSO control. The curves were processed and evaluated using Activity Base (IDBS, Alameda, CA) or using Dotmatics (Boston, MA).

[2] = tested on: MKN45 cells; assay: MKN45 cell proliferation assay (Cell-Titer-Glo, 120 hr); conditions: for pEC50: Homo sapiens, MKN-45, 120 h, read-out: MKN45 Cell Prolif. 120 hr EC50; for MKN45 Cell Prolif. 120 hr YMin (%): minimal percent of DMSO control observed
Source text: (§1) MKN45 cells were obtained from Celgene internal cell banks and cultured in RPMI complete media (RPMI-1640, 1× Penicillin/Streptomycin, 1× glutamine, 1× Sodium Pyruvate, Non-essential Amino Acids, 10% Fetal Bovine serum, all component from Thermo-Fisher). MDA-MB-231 cells were obtained from the ATCC (HTB-26) and cultured in RPMI-1640 and 10% Fetal Bovine serum; MDA-MB-231 cells were expanded and stored as aliquots in liquid nitrogen in Celgene internal cell banks. Compounds were dispensed into 384-well plates using an HP DE300 compound printer in triplicate with 8 compounds on each plate. Compounds were dispensed into 384-well black clear bottom plates (Corning #3764BC) using an EDC acoustic dispenser at BMS. For each compound, a 10-point dose response was printed at half-log dilutions starting at either 1 uM or 10 uM in triplicate for MKN45 cells and in duplicate for MDA-MB-231 cells. The DMSO concentration was kept constant for a final assay concentration of 0.1% per well assuming 50 ul final media volume. Compound plates were sealed and frozen at −20 C until use.
(§2) For each assay batch, compound plates were thawed and allowed to reach room temperature, and cells were seeded at 400 MKN45 cells per well, or 800 MDA-MB-231 cells per well, in 50 ul media listed above for each cell line. After 120 hours of incubation at 37 C and 5% CO2, cells were lysed by addition of 25 μL of Cell-Titer-Glo Reagent (Promega Corporation, Madison, WI), as per manufacturer's instructions, protected from light, shaken for 45 minutes, and total luminescence read by a Perkin Elmer Envision plate reader. Total luminescence signal is linearly correlated with cell number remaining in the well.
(§3) Luminescence data was processed per plate by subtracting reagent-only “blank” well luminescence from all measured values and calculating a percent of DMSO control value for each treatment well. Then, to determine the half-maximal effective concentration (EC50) values for cell growth inhibition, a four parameter logistic model was fit to the data for each DMSO-normalized compound: Sigmoidal Dose-Response Model: (FIT=(A+((B−A)/1+((C/x)^D)))) where C is the inflection point ([…]), D is the Hill slope, and A and B are the low and high limits of the fit respectively. The lower limit of the fit (value A) is referred to as Ymin-calculated. The minimal percent of DMSO control that is observed in the concentrations tested for each compound is labeled as “Ymin-obs”, and was recorded and reported in the tables. Sigmoidal fit curves were processed and evaluated using Activity Base (IDBS, Alameda, CA) or using Dotmatics (Boston, MA). N/A=not available at the present time.

[3] = tested on: MDA-MB-231 cells; assay: MDA-MB-231 cell proliferation assay (Cell-Titer-Glo, 120 hr); conditions: for pEC50: read-out: MDA-MB 231 Cell Prolif. 120 hr EC50; for MDA-MB 231 Cell Prolif. 120 hr YMin (%): minimal percent of DMSO control observed
Source text: as §1, §2, §3

[4] = Homo sapiens, MDA-MB-231, 120 h

T1 sequence (P30291 whole entry): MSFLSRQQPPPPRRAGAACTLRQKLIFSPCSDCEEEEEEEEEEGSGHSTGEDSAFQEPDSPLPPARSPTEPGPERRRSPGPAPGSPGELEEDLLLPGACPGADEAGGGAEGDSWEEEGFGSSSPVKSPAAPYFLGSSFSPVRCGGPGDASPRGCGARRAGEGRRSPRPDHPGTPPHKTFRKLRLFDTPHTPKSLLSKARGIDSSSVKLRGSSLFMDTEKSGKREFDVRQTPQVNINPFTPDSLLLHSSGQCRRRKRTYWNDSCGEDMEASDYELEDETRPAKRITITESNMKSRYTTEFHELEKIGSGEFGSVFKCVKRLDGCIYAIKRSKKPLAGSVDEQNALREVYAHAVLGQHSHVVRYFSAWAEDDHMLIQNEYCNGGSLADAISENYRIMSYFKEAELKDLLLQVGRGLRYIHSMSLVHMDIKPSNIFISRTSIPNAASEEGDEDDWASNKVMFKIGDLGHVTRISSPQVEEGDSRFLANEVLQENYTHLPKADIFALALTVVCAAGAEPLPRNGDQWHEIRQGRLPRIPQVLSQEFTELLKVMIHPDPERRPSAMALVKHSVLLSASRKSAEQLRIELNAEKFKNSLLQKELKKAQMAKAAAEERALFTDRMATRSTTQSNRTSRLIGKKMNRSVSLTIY
T1 sequence (Q96SW2 whole entry): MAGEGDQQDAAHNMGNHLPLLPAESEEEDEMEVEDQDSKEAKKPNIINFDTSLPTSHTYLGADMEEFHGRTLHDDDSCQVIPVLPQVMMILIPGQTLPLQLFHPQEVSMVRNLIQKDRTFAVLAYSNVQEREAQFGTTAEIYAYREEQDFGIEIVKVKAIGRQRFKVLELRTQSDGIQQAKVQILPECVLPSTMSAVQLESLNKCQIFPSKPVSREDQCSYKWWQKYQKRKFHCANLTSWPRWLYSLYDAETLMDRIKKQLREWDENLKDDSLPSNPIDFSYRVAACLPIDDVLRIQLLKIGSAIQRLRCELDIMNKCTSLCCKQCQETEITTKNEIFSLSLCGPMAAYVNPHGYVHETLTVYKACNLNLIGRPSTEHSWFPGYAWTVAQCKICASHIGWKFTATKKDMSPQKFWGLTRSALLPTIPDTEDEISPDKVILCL
T1 sequence (Q16531 whole entry partner): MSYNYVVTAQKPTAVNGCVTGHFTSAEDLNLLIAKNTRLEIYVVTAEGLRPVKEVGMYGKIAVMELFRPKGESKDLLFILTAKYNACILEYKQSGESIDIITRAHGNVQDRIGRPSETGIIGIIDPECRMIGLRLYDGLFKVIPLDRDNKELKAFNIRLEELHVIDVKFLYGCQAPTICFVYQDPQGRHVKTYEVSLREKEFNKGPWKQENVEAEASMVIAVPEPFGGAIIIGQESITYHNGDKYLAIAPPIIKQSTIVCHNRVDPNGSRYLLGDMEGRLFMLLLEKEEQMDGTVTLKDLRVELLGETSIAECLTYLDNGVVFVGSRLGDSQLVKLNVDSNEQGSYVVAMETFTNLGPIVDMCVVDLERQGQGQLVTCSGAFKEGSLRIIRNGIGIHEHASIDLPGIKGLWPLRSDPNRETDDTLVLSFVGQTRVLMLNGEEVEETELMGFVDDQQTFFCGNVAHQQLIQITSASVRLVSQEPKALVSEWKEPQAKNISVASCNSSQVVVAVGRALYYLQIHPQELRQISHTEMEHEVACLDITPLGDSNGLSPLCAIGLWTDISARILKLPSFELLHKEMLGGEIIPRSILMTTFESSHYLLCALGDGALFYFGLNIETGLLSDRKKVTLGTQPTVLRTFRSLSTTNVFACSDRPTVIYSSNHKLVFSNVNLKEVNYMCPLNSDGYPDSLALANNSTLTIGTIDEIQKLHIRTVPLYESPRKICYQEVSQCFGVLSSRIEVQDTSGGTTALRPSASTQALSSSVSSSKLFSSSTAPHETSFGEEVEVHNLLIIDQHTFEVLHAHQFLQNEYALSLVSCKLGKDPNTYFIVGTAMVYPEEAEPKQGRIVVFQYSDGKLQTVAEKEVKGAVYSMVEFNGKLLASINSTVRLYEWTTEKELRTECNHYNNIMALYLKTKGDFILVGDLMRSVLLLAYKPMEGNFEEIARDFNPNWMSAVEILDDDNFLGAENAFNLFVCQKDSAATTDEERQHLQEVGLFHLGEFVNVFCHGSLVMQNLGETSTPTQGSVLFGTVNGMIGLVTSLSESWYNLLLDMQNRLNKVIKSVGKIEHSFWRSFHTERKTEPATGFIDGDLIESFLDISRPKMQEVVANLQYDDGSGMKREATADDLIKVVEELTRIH

Row | SMILES | 293T-LentiX WEE1-ePL Degradation 4 hr YMin (%) [1] | pEC50 [2] | MKN45 Cell Prolif. 120 hr YMin (%) [2] | pEC50 [3, 4] | MDA-MB 231 Cell Prolif. 120 hr YMin (%) [3] | DC50 [1] | pEC50 [3]
1 | COC[C@@H]1CN(Cc2cc(F)c3nc(N4CCN(C5COC5)CC4)ccc3c2)C[C@H]1Oc1ccc2c(c1)CN([C@H]1CCC(=O)NC1=O)C2=O [Example 142, (3S)-3-(5-{[(3S,4S)-1-({8-fluoro-2-[4-(oxetan-3-yl)piperazin-1-yl]quinolin-6-yl}methyl)-4-(methoxymethyl)pyrrolidin-3-yl]oxy}-1-oxo-2,3-dihydro-1H-isoindol-2-yl)piperidine-2,6-dione] | 19.9% | 9.00 | 7.1% | 7.62 | 43.3% |  | 
2 | COC[C@@H]1CN(Cc2ccc3ccc(N4CCOCC4)nc3c2)C[C@H]1Oc1ccc2c(c1)CN([C@H]1CCC(=O)NC1=O)C2=O [Example 108, (3S)-3-(5-{[(3S,4S)-4-(methoxymethyl)-1-{[2-(morpholin-4-yl)quinolin-7-yl]methyl}pyrrolidin-3-yl]oxy}-1-oxo-2,3-dihydro-1H-isoindol-2-yl)piperidine-2,6-dione] | 61.2% | 6.47 | 89.6% | 5.51 | 82.8% | 8 nM | 
3 | O=C1CC[C@H](N2Cc3cc(O[C@H]4CCN(Cc5ccc6nc([C@H]7CCO[C@@]8(CCOC8)C7)ccc6c5)C4)ccc3C2=O)C(=O)N1 (relative stereo) [Example 22, rel-(3S)-3-(5-(((3S)-1-((2-(2,6-dioxaspiro[4.5]decan-9-yl)quinolin-6-yl)methyl)pyrrolidin-3-yl)oxy)-1-oxoisoindolin-2-yl)piperidine-2,6-dione] | 31.3% | 8.70 | 10.8% | 7.41 | 42.5% | 1 nM | 
4 | COC[C@@H]1CN(Cc2cc(F)c3nc(C45CC(C(C)(C)O)(C4)C5)ccc3c2)C[C@H]1Oc1ccc2c(c1)CN([C@H]1CCC(=O)NC1=O)C2=O [Example 56, (3S)-3-(5-{[(3S,4S)-1-({8-fluoro-2-[3-(2-hydroxypropan-2-yl)bicyclo[1.1.1]pentan-1-yl]quinolin-6-yl}methyl)-4-(methoxymethyl)pyrrolidin-3-yl]oxy}-1-oxo-2,3-dihydro-1H-isoindol-2-yl)piperidine-2,6-dione] | 29.9% |  | 10.0% | 7.72 | 25.5% |  | 
5 | COC[C@@H]1CN(Cc2cc(F)c3nc(C4CC(C)(C)OC(C)(C)C4)ccc3c2)C[C@H]1Oc1ccc2c(c1)CN([C@H]1CCC(=O)NC1=O)C2=O [Example 53, (3S)-3-(5-{[(3S,4S)-1-{[8-fluoro-2-(2,2,6,6-tetramethyloxan-4-yl)quinolin-6-yl]methyl}-4-(methoxymethyl)pyrrolidin-3-yl]oxy}-1-oxo-2,3-dihydro-1H-isoindol-2-yl)piperidine-2,6-dione] | 27.9% |  | 10.5% | 8.10 | 13.4% |  | 
6 | COC[C@H]1CN(Cc2cc(F)c3nc(C4CCOCC4)ccc3c2)C[C@H]1Oc1ccc2c(c1)CN([C@H]1CCC(=O)NC1=O)C2=O [Example 83, (3S)-3-(5-{[(3S,4R)-1-{[8-fluoro-2-(oxan-4-yl)quinolin-6-yl]methyl}-4-(methoxymethyl)pyrrolidin-3-yl]oxy}-1-oxo-2,3-dihydro-1H-isoindol-2-yl)piperidine-2,6-dione] | 81.6% | 6.96 | 94.8% | 5.95 | 87.9% |  | 
7 | CN1CC2(CC(c3ccc4cc(CN5CC[C@H](Oc6ccc7c(c6)CN([C@H]6CCC(=O)NC6=O)C7=O)C5)ccc4n3)CO2)C1 (single isomer, unassigned) [Example 1, (S)-3-(5-(((S)-1-((2-((R*)-2-methyl-5-oxa-2-azaspiro[3.4]octan-7-yl)quinolin-6-yl)methyl)pyrrolidin-3-yl)oxy)-1-oxoisoindolin-2-yl)piperidine-2,6-dione] | 30.7% | 7.12 | 16.1% |  | 70.9% | 368 nM | 5.81
8 | O=C1CC[C@H](N2Cc3cc(O[C@H]4CCN(Cc5cc(F)c6nc(N7C[C@H]8CCO[C@H]8C7)ncc6c5)C4)ccc3C2=O)C(=O)N1 (single isomer, unassigned) [Example 9, (S)-3-(5-(((S)-1-((8-fluoro-2-((3aR*,6aR*)-hexahydro-5H-furo[2,3-c]pyrrol-5-yl)quinazolin-6-yl)methyl)pyrrolidin-3-yl)oxy)-1-oxoisoindolin-2-yl)piperidine-2,6-dione] | 32.4% | 7.96 | 11.7% | 6.44 | 45.1% | 6 nM | 
9 | COC[C@@H]1CN(Cc2cc3ccc(C(=O)N(C)C)cc3cn2)C[C@H]1Oc1ccc2c(c1)CN([C@H]1CCC(=O)NC1=O)C2=O [Example 115, 3-{[(3S,4S)-3-({2-[(3S)-2,6-dioxopiperidin-3-yl]-1-oxo-2,3-dihydro-1H-isoindol-5-yl}oxy)-4-(methoxymethyl)pyrrolidin-1-yl]methyl}-N,N-dimethyliso-quinoline-7-carboxamide] | 21.5% | 8.05 | 9.4% | 6.67 | 41.5% | 6 nM | 
10 | COC[C@@H]1CN(Cc2ccc3nc(N4CCN(C(C)=O)C5(COC5)C4)ccc3c2)C[C@H]1Oc1ccc2c(c1)CN([C@H]1CCC(=O)NC1=O)C2=O [Example 90, (3S)-3-(5-{[(3S,4S)-1-[(2-{5-acetyl-2-oxa-5,8-diazaspiro[3.5]nonan-8-yl}quinolin-6-yl)methyl]-4-(methoxymethyl)pyrrolidin-3-yl]oxy}-1-oxo-2,3-dihydro-1H-isoindol-2-yl)piperidine-2,6-dione] | 21.0% | 8.70 | 6.4% | 7.38 | 27.2% | 1 nM | 
